Test system: HT-1080 fibrosarcoma
Assay: HT-1080 Tumor Xenograft Model
Type: in vivo, mouse
Conditions: 0.3 or 1.0 mg/kg, i.p.
Excerpt: FIG. 9. […] (A) Systemic Portimine A in MC38 Syngeneic Tumor Xenograft Model; and (B) Systemic Portimine A in HT-1080 Tumor Xenograft Model.
Preliminary cell-based target engagement studies, based on compound washout, indicates PA is fast acting with <1 hr of exposure resulting in minimal loss of potency. Cmax-driven pharmacology and facile synthetic access to material enabled the evaluation of PA in both a syngeneic (MC38 colon carcinoma) and a human metastatic mesenchymal (HT-1080 fibrosarcoma) mouse tumor xenograft model. […] Metabolic stability represents an opportunity for an additional IP position.
• 1) Portimine A and its functional analogs show stereo-selective acute toxicity in cancer cells (FIG. 1). […] (B) Structure of portimine related analogs: phenyl-portimine A (Ph-PA, 36) and epi-portimine A (ePA, 38). Structure of fully functionalized portimine A-based epimeric probe pair: portimine A-diazirine-alkyne (PA-DA, 35-2) and epi-portimine A-diazirine-alkyne (ePA-DA, 35-1). (C) Cell viability analysis of portimine A and analogs. Jurkat cells were treated with increasing concentrations of portimine A and analogs for 24 hours. All presented data as mean of biological replicated experiments (n=3). […] Jurkat cells were treated with portimine A or analogs for 12 hours at 10 nM. […]

C=CC1=C[C@@H]2[C@@H]3O[C@]4(CC[C@H](O4)C(C)C[C@@H](O)C3=O)CC(O)C3=NCC[C@@]32CC1 (stereo partly shown) [PA, portimine A]
anti-tumor activity, HT-1080 fibrosarcoma xenograft model: Potent anti-tumor activity
